Results published in PubChem BioAssay AID1963858 (Molecular Pharmacology Branch, DTP, NCI, 2024).

System: HOP-62 multicell spheroids with HUVEC/MSC, viability
Test: Anticancer human tumor HOP-62 cell line growth inhibition [KRAS2];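 note: viability read after a week of compound exposure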;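 for viability, T/C: 100% = DMSO vehicle-treated spheroids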
Conditions: for IC50: curve of first compound; for viability, T/C: stronger effect = lower value
Excerpt: Multicellular complex tumor spheroid response to RAS pathway inhibitors in combination with a targeted agents in patient-derived cell lines with oncogenic KRAS variants from multiple cancer types
A high-throughput screen of multi-cell type tumor spheroids was designed to identify active combinations of targeted small molecules and KRAS pathway inhibitors. Complex spheroids include a stromal component modeled by human endothelial cells (HUVEC) and fibroblasts modeled by human mesenchymal stem cells (MSCs). The concentration ranges selected for each drug and investigational agent were based upon clinically achievable concentrations if the clinical Cmax of the agent was known.
Compounds. The drugs and investigational agents: BI-3406 (NSC825286), BAY-293 (NSC824723), batoprotafib (TNO155; NSC825523), sotorasib (AMG 510; NSC818433), MRTX1257 (NSC819558), elimusertib (BAY 1895344; NSC800525), molibresib (GSK525762; NSC774829), temuterkib (LY3214996; NSC803410), venetoclax (NSC766270), alisertib (NSC759677), olaparib (NSC753686), talazoparib (NSC767125), erdafitinib (NSC781556), ipatasertib (NSC767898), cabozantinib (NSC761068), nintedanib (NSC756659), abemaciclib (NSC768073), docetaxel (NSC628503), trametinib (NSC758246), and sapanisertib (NSC764658) were obtained from the National Cancer Institute (NCI) Developmental Therapeutics Program Chemical Repository. The FDA-approved anticancer drug set is available from the Developmental Therapeutics Program. […] The stock solutions were prepared in dimethyl sulfoxide (DMSO, Sigma-Aldrich, St. Louis, MO, cat. D2650) at 800-fold the tested concentration and stored at -70 degrees C prior to their use. All drugs and investigational agents were tested over a range starting from a high concentration at or near the clinical Cmax and decreasing in half-log increments. If the clinical Cmax for an agent had not been determined, the highest concentration tested was 10 microM.
Cell Culture. All cells were maintained in an incubator at 37 degrees C and 5% CO2 with 95% humidity. The PDC lines were cultured according to standard operating procedures established by the NCI PDMR (https://pdmr.cancer.gov/sops/default.htm). Briefly, all PDCs were thawed and cultured in Matrigel-coated flasks prepared with a working solution of 1X Ham's F-12 nutrient mix, without supplementation (Invitrogen, Waltham, MA, cat. 11765054), 100 U/mL penicillin-streptomycin (Invitrogen, cat. 15140122), and 2.5% Matrigel (Corning Inc., Corning, NY, cat. 354248) for the first three passages. All PDCs were cultured in complete DMEM/F-12 media containing advanced DMEM/F-12 (Invitrogen, cat. 12634028), 4.9% defined fetal bovine serum, heat inactivated (HyClone Laboratories Inc., Logan, UT, cat. SH30070.03HI), 389 ng/mL hydrocortisone (Sigma-Aldrich, cat. H4001), 9.7 ng/mL human EGF recombinant protein (Invitrogen, cat. PHG0313), 23.4 microg/mL adenine (Sigma-Aldrich, cat. A2786), 97.3 U/mL penicillin-streptomycin (Invitrogen, cat. 15140122), 1.9 mM L-glutamine (Invitrogen, cat. 25030081), and 9.7 microM Y-27632 dihydrochloride (Tocris Bioscience, Bristol, United Kingdom, cat. 1254). The PDCs were cultured in complete DMEM/F12 media without 9.7 microM Y-27632 dihydrochloride for at least two passages prior to the screen. The established cell line HOP-62 was cultured in RPMI 1640 medium, HEPES (Invitrogen, cat. 22400105) with 10% defined fetal bovine serum (HyClone Laboratories Inc., cat. SH30070.03) and 2 mM L-glutamine (Invitrogen, cat. 25030081). The pooled donor HUVEC were cultured in endothelial cell growth medium 2 (PromoCell, Heidelberg, Germany, cat. C-22011) and the hMSC were cultured in mesenchymal stem cell growth medium 2 (PromoCell, cat. C-28009). For all experiments, HUVEC and hMSC were used at passages </=5, while the malignant cell lines were used at passages </=15. […]

[1] = second compound 0.1 µM, first compound 0.0316 µM
[2] = second compound 0.1 µM, first compound 0.1 µM
[3] = second compound 0.1 µM, first compound 0.316 µM
[4] = second compound 0.1 µM, first compound 1 µM
[5] = second compound 0.1 µM, first compound 3.16 µM
[6] = second compound 0.1 µM, first compound 10 µM
[7] = second compound 0.316 µM, first compound 0.0316 µM
[8] = second compound 0.316 µM, first compound 0.1 µM
[9] = second compound 0.316 µM, first compound 0.316 µM
[10] = second compound 0.316 µM, first compound 1 µM
[11] = second compound 0.316 µM, first compound 3.16 µM
[12] = second compound 0.316 µM, first compound 10 µM
[13] = second compound 1 µM, first compound 0.0316 µM
[14] = second compound 1 µM, first compound 0.1 µM
[15] = second compound 1 µM, first compound 0.316 µM
[16] = second compound 1 µM, first compound 1 µM
[17] = second compound 1 µM, first compound 3.16 µM
[18] = second compound 1 µM, first compound 10 µM
[19] = second compound 3.16 µM, first compound 0.0316 µM
[20] = second compound 3.16 µM, first compound 0.1 µM
[21] = second compound 3.16 µM, first compound 0.316 µM
[22] = second compound 3.16 µM, first compound 1 µM
[23] = second compound 3.16 µM, first compound 3.16 µM
[24] = second compound 3.16 µM, first compound 10 µM
[25] = second compound 10 µM, first compound 0.0316 µM
[26] = second compound 10 µM, first compound 0.1 µM
[27] = second compound 10 µM, first compound 0.316 µM
[28] = second compound 10 µM, first compound 1 µM
[29] = second compound 10 µM, first compound 3.16 µM
[30] = second compound 10 µM, first compound 10 µM

Row | SMILES | IC50 (second compound 0.1 µM) [nM] | IC50 (second compound 0.316 µM) [nM] | IC50 (second compound 1 µM) [nM] | IC50 (second compound 3.16 µM) [nM] | IC50 (second compound 10 µM) [nM] | viability, T/C [1] [%] | viability, T/C [2] [%] | viability, T/C [3] [%] | viability, T/C [4] [%] | viability, T/C [5] [%] | viability, T/C [6] [%] | viability, T/C [7] [%] | viability, T/C [8] [%] | viability, T/C [9] [%] | viability, T/C [10] [%] | viability, T/C [11] [%] | viability, T/C [12] [%] | viability, T/C [13] [%] | viability, T/C [14] [%] | viability, T/C [15] [%] | other results
1 | O=C(c1cc(Cc2n[nH]c(=O)c3ccccc23)ccc1F)N1CCN(C(=O)C2CC2)CC1 + CNCc1ccccc1-c1csc(C(C)Nc2nc(C)nc3cc(OC)c(OC)cc23)c1 | 7080 | 6810 | 6100 | < 31.6 | < 31.6 | 105 | 106 | 97.6 | 86 | 65.7 | 43.3 | 85.7 | 84.3 | 83.2 | 85.3 | 65.9 | 42.1 | 84.7 | 85.3 | 78.9 | viability, T/C [16]: 83.2%; viability, T/C [17]: 59.5%; viability, T/C [18]: 42.8%; viability, T/C [19]: 35.1%; viability, T/C [20]: 35.4%; viability, T/C [21]: 28.4%; viability, T/C [22]: 0.6%; viability, T/C [23]: 42.3%; viability, T/C [24]: 0.43%; viability, T/C [25]: 0.17%; viability, T/C [26]: 0.21%; viability, T/C [27]: 29.1%; viability, T/C [28]: 0.15%; viability, T/C [29]: 0.14%; viability, T/C [30]: 1.69%
2 | COC(=O)c1ccc2c(C(=Nc3ccc(N(C)C(=O)CN4CCN(C)CC4)cc3)c3ccccc3)c(O)[nH]c2c1 + CNCc1ccccc1-c1csc(C(C)Nc2nc(C)nc3cc(OC)c(OC)cc23)c1 | 246 | 49.3 | < 31.6 | < 31.6 | < 31.6 | 68.1 | 64.7 | 40.1 | 34.6 | 29.5 | 5.99 | 48.3 | 54.6 | 35.6 | 31.4 | 16.1 | 3.78 | 43 | 32.2 | 38.6 | viability, T/C [16]: 29.8%; viability, T/C [17]: 0.17%; viability, T/C [18]: 0.9%; viability, T/C [19]: 12.6%; viability, T/C [20]: 0.12%; viability, T/C [21]: 0.09%; viability, T/C [22]: 0.09%; viability, T/C [23]: 0.07%; viability, T/C [24]: 0.1%; viability, T/C [25]: 0.12%; viability, T/C [26]: 0.16%; viability, T/C [27]: 45.8%; viability, T/C [28]: 0.09%; viability, T/C [29]: 0.08%; viability, T/C [30]: 0.35%
